Data as given in PubChem BioAssay (NCI).
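Interpolation was linear, between the two tested concentrations surrounding the appropriate level; five concentrations were tested over 48 hours in 96-well plates. Here, GI50 denotes the concentration required for 50% inhibition of growth. At the TGI there is no net growth.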

What was measured:
Assay in all cases: growth of human tumour cells (NCI), 48 h
A549 NSCLC = tested on: A549 NSCLC
HCT-116 colon = tested on: HCT-116 colon
HL-60(TB) leukemia = tested on: HL-60(TB) leukemia
HOP-92 NSCLC = tested on: HOP-92 NSCLC
K-562 leukemia = tested on: K-562 leukemia
M14 melanoma = tested on: M14 melanoma
NCI-H226 lung = tested on: NCI-H226 lung
OVCAR-8 ovarian = tested on: OVCAR-8 ovarian
U251 CNS = tested on: U251 CNS
UO-31 renal = tested on: UO-31 renal

SMILES | GI50 (A549 NSCLC) [µM] | TGI (A549 NSCLC) [µM] | GI50 (HCT-116 colon) [µM] | TGI (HCT-116 colon) [µM] | GI50 (HL-60(TB) leukemia) [µM] | TGI (HL-60(TB) leukemia) [µM] | GI50 (HOP-92 NSCLC) [µM] | TGI (HOP-92 NSCLC) [µM] | GI50 (K-562 leukemia) [µM] | TGI (K-562 leukemia) [µM] | GI50 (M14 melanoma) [µM] | TGI (M14 melanoma) [µM] | GI50 (NCI-H226 lung) [µM] | TGI (NCI-H226 lung) [µM] | GI50 (OVCAR-8 ovarian) [µM] | TGI (OVCAR-8 ovarian) [µM] | GI50 (U251 CNS) [µM] | TGI (U251 CNS) [µM] | GI50 (UO-31 renal) [µM] | TGI (UO-31 renal) [µM]
Cc1cnc(C(=O)NNc2nc3sc4c(c3c(=O)[nH]2)C(C)CCC4)cn1 (centres undefined) | 1.23 | 14 | 0.672 | 17 | 2.04 | 4.89 | 1.84 | 62.9 | 2.66 | > 100 | 0.727 | 9.52 | 1.7 | 12.3 | 0.952 | 16 | 0.603 | > 100 | 0.414 | 3.64
CCSCC1CC(O)(c2ccccc2)C(c2ccccc2)C(c2ccc(F)cc2)O1 (centres undefined) | 2.15 | 6.35 | 1.47 | 3.22 | 1.7 | 6.33 | 1.23 | 3.15 | 2.11 | 6.53 | 1.74 | 3.23 | 1.97 | 4.89 | 2.64 | 8.54 | 1.75 | 3.91 | 1.71 | 6.46
CCN(CC)c1ccc2nc3ccc(=[N+](CC)CC)cc-3oc2c1 | 0.826 | > 100 | 0.0402 | 1.27 | 0.0247 | 1.2 | 1.31 | 5.14 | 0.174 | > 100 | 0.0903 | 1.71 | 0.729 | 3.8 | 0.121 |  | 0.119 | > 100 | 2.63 | 25
Cc1ccc(NC(=O)c2cc(S(=O)(=O)Nc3nnc(-c4ccccc4)c(-c4ccccc4)n3)c(SCc3ccccc3)cc2Cl)cc1 | 18.4 | 34.3 | 28.5 | 75.7 | 17.2 | 41.6 | 18.8 | 42.9 | 23.8 | > 100 | 34.8 | > 100 | 21.4 | 56 | 29.4 | 76.8 | 13.7 | 28.7 | 25.3 | 63.9
CC1NOC(=O)C1N=Nc1ccc(Cl)cc1Cl (centres undefined) |  | 65.9 |  | 52.5 |  | 44.8 |  | 44.3 |  | 82.5 |  | 47.4 |  | 63.4 |  | 72 |  | 38.5 |  | 51
ClCCOCCn1cnc2c(Cl)nc(Cl)nc21 | 21.6 | 61.9 | 10.8 | 25.1 | 4.08 | > 100 | 18.9 | 45.5 | 15.9 | > 100 | 13.4 | 27.9 | 16.3 | 33.8 | 10.3 | 26.5 | 12.3 | 24.7 | 13.3 | 26.7
Cc1noc(NC(=O)Nc2ccccc2F)c1C#N |  | > 52.1 |  | > 43 |  | > 100 |  | > 100 |  | > 100 |  | > 42.6 |  | > 100 |  | > 100 |  | > 44.6 |  | 4.42
